Experimental data reported in ChEMBL document CHEMBL1201862, “PubChem BioAssay data set” (2004).
The source made the active and inactive calls.

Assays:
[1] = target: T1, Calpain-2 catalytic subunit (Sus scrofa, UniProt P43367); assay: m-calpain protease blockers, concentration series – biochemical, fluorogenic peptide substrate, dose response (AID 1420); format: functional
T1 sequence (P43367 whole entry): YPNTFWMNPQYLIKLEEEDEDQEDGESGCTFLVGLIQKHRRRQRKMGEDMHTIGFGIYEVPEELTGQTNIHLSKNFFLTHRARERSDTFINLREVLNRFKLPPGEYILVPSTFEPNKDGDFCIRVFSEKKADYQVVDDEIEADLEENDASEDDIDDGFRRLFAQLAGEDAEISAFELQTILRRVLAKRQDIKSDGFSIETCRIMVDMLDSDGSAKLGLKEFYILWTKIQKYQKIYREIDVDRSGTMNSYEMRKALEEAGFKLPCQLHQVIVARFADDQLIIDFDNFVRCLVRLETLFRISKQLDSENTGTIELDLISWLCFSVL

[2] = target: T2, Heat shock factor protein 1 (Mus musculus, UniProt P38532); assay: enhancement of HSF1-driven luciferase signal – cell-based, NIH3T3, luminescence, dose retest, confirmation (AID 435004); format: functional;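 note: stress induced by proteasome inhibitor MG132 added 30 min after compound; luciferase reporter driven by HSF1 response element in NIH3T3 cells; actives raise luminescence as potentiators of the MG132 stress response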
T2 sequence (P38532 whole entry): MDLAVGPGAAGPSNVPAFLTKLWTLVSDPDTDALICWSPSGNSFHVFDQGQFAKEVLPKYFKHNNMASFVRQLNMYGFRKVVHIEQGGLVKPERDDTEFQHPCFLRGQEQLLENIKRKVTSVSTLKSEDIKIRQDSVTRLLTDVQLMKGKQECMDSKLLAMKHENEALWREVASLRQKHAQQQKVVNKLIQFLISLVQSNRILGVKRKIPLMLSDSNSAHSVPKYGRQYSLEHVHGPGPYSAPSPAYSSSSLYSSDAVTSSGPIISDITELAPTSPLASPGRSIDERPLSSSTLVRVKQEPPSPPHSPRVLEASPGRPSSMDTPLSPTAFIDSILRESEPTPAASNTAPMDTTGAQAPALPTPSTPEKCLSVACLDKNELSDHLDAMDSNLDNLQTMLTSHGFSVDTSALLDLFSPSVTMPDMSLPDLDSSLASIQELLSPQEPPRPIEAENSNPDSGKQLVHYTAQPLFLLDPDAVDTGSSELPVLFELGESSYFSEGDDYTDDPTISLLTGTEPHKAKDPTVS

[3] = microbe, parasite or virus in culture; format: functional; conditions: Mycobacterium tuberculosis
[4] = target: T3, High affinity choline transporter 1 (Homo sapiens, UniProt Q9GZV3); assay: human choline transporter blockers, potency – cell-based, 5-point CRC, membrane potential dye, dose response (AID 504840); format: functional
T3 sequence (Q9GZV3 whole entry): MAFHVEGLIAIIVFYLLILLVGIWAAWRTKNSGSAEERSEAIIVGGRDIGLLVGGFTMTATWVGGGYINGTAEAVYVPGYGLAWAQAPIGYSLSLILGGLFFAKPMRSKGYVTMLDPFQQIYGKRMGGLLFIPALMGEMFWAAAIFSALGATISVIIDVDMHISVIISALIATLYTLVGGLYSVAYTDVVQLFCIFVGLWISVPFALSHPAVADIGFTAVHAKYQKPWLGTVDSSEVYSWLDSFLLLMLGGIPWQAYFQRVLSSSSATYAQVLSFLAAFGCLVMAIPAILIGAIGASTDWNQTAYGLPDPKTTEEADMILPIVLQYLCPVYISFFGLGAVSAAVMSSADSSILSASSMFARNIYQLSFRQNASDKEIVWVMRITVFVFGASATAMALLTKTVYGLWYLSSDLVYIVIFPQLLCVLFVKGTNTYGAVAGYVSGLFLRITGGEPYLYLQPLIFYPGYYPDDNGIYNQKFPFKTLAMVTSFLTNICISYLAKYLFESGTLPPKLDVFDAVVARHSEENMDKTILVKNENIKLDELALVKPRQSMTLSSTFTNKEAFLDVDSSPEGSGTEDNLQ

[5] = target: T4, RNA-binding protein pos-1 (Caenorhabditis elegans, UniProt G5EF15); assay: disruptors of C. elegans POS-1 RNA interaction – biochemical, fluorescence polarization, dose response (AID 1964);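 note: purified POS-1 fused to maltose binding protein made in E. coli; potency of compounds blocking POS-1 binding to fluorescent RNA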
T4 sequence (G5EF15 whole entry): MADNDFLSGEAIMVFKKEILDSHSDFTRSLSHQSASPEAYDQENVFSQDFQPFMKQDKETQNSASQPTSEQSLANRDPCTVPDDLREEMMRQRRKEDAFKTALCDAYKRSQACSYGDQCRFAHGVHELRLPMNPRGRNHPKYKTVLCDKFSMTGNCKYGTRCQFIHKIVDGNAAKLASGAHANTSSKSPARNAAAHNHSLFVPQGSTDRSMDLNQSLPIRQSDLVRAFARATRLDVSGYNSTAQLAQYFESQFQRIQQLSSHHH

[6] = target: T5, Ubiquitin-conjugating enzyme E2 N (Homo sapiens, UniProt P61088); format: functional;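 note: Dose-response confirmation in a TR-FRET assay detecting UBC13-driven polyubiquitin chain formation, inhibition measured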
T5 sequence (P61088 whole entry): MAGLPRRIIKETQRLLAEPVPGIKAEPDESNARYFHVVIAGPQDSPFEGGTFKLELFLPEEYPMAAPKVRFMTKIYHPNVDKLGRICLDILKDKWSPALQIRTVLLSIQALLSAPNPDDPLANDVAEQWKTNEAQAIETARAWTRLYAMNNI

[7] = target: Nonstructural protein 1 (Influenza A virus, UniProt Q194T2); format: functional, Influenza A virus (A/California/07/2009(H1N1))
Chain of Nonstructural protein 1 (Q194T2 whole entry): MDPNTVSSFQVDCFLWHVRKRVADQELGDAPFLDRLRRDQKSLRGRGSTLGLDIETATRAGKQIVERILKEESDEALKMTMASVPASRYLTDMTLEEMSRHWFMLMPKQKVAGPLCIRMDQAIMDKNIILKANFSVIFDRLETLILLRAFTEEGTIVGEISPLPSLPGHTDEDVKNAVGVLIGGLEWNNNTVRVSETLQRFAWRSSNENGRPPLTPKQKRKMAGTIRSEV

[8] = target: FAD-linked sulfhydryl oxidase ALR (Homo sapiens, UniProt P55789); assay: ALR-catalysed DTT oxidation blockers – biochemical, H2O2 detection, luminescence, cherry-pick, dose response (AID 493248)
Chain of FAD-linked sulfhydryl oxidase ALR (P55789 whole entry, the tested form may be a part): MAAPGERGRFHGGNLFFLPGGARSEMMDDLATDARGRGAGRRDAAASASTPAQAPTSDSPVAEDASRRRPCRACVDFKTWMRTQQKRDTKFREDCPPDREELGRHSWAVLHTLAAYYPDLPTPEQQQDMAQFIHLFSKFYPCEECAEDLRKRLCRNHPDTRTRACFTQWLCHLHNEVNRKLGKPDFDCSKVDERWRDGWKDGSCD

[9] = target: T6, Carboxy-terminal domain RNA polymerase II polypeptide A small phosphatase 1 (Homo sapiens, UniProt Q9GZU7); assay: CTDSP1 inhibitors, concentration-response, biochemical, absorbance readout, ultra-high-throughput screen actives (AID 540297); format: functional
T6 sequence (Q9GZU7 whole entry): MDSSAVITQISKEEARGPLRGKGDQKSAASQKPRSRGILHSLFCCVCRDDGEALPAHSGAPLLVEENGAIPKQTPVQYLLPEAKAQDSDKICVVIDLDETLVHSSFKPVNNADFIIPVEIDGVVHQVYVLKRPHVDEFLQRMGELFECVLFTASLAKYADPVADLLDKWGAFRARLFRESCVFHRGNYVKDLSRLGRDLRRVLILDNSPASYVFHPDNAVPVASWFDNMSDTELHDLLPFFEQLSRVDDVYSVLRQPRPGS

[10] = Luminescence Cell-Based Dose Retest to Confirm Inhibitors of Cancer Stem Cells. [Related pubchem assays (depositor defined):AID2717, AID2721]; format: functional; conditions: Homo sapiens
[11] = target: Cytochrome P450 2D6 (Homo sapiens, UniProt P10635);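 note: CYP2D6 member of a cytochrome P450 panel assay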
Chain of Cytochrome P450 2D6 (P10635 whole entry): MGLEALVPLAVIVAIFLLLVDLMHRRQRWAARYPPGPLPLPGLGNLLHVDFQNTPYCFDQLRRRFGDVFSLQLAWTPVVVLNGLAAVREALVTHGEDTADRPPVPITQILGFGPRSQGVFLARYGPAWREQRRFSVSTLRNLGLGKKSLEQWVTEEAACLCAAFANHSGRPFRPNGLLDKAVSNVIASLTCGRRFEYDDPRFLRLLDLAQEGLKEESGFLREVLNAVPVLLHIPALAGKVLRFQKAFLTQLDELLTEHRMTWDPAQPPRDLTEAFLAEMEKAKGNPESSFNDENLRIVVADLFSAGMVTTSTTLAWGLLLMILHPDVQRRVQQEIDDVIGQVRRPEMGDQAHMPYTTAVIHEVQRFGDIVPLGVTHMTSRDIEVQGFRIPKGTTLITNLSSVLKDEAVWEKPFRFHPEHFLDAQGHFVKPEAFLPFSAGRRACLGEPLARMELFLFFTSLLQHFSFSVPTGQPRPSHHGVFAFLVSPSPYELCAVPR

[12] = HEK-293T viability loss after treatment – luminescence, T-cell screen hits, cytotoxicity control for TCR NF-kB inhibitor project, dose response (AID 489026); format: functional, cell-based;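 note: cells exposed to compound about 14 hours before the viability readout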
[13] = growth inhibition of yeast DHODH-expressing 3D7 parasites – SYBR Green, dry powder samples, dose response (AID 1159570); format: functional, cell-based;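 note: parasite growth measured after 72 hours of compound exposure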
[14] = P. falciparum Dd2 growth inhibitors, dose response, SYBR Green, cherry-picked samples (AID 1159567); format: functional, cell-based
[15] = Dd2 malaria parasite growth inhibition potency – SYBR Green, dry powder samples, dose response (AID 1159566); format: functional, cell-based;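 note: potency for growth inhibition with lower SYBR green DNA signal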
[16] = growth inhibition of PfATP4-mutant resistant parasites – NITD609-resistant line, SYBR Green, dry powder, dose response (AID 1159571); format: functional, cell-based;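 note: parasites synchronized at ring stage by sorbitol before testing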
[17] = luciferase reporter signal suppression in cells – H4 neuroglioma cells, luminescence, dose response (AID 1990); format: functional, cell-based
[18] = Luminescence Cell-Based Dose Response HTS to Identify Inhibitors of 5'UTR Stem-Loop Driven Prion Protein mRNA Translation in H4 Neuroglioblastoma Cells. [Related pubchem assays: 1827 (Project Summary), 1813 (Primary HTS)]; format: functional
[19] = alpha-synuclein stem-loop luciferase translation blockers – H4 neuroglioma cells, luminescence, confirmation (AID 1988); format: functional, cell-based
[20] = blockers of HIV-1 envelope-mediated cell-cell fusion – cherry-pick, dose response (AID 652057); format: functional, cell-based
[21] = HIV-1 AD8 envelope cell-cell fusion blockers – cherry-pick, dose response (AID 652062); format: functional, cell-based;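 note: luciferase signal from cell-cell fusion driven by HIV-1 clade B AD8 Env; potency is for inhibitors of fusion seen as a drop in luminescence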
[22] = target: T7, Rac GTPase-activating protein 1 (Homo sapiens, UniProt Q9H0H5); assay: blockers of MgcRacGAP-driven Rac1 GTP hydrolysis – biochemical, ADP Hunter fluorescence, primary and confirmatory, confirmation (AID 624330); format: functional
T7 sequence (Q9H0H5 whole entry): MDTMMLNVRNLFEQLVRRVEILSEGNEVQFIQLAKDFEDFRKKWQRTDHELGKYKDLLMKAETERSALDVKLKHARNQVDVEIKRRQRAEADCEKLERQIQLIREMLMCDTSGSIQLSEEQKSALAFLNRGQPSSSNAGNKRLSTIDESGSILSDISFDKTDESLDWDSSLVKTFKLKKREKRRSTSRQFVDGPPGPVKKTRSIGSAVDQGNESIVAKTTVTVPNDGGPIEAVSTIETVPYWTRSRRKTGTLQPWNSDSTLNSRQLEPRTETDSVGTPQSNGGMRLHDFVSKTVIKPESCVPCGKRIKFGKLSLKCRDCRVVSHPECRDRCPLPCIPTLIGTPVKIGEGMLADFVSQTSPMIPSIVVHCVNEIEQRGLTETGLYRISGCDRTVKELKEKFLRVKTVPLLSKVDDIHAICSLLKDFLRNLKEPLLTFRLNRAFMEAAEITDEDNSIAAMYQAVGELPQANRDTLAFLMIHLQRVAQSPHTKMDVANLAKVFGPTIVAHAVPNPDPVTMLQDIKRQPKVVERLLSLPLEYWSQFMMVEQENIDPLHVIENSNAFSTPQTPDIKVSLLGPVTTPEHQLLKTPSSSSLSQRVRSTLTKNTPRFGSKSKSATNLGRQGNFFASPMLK

CC(=O)Oc1ccc(-c2cccc(C(=O)OCC(=O)N(C)c3ccccc3)c2)cc1
IC50 [1]: 14.2 µM (not active) | EC50 [2]: > 260 µM (inactive)

COCCn1c(-c2ccc(OC(F)(F)C(F)C(F)(F)F)cc2)nc2c1c(=O)[nH]c(=O)n2CC(C)C (configuration not stated)
CC50 [3]: > 40 µM (active)

C/C(=N\NC(=N)N)c1ccccc1
IC50 [4]: 13.5 µM (active)

CC(=O)Nc1ccc(S(=O)(=O)NNC(=O)C(=O)NNc2ccccn2)cc1
EC50 [5]: > 300 µM (not active) | IC50 [6]: > 20 µM (inactive)

Cc1nc(SCC(=O)NC(=O)NC2CCCCC2)nc(C)c1C
IC50 [4]: 12.7 µM (active)

CCOc1ccc(-c2nc(C#N)c(N3CCN(Cc4ccccc4)CC3)o2)cc1
IC50 [7]: > 100 µM (active)

CCCc1cc(C(=O)NN=C(S)NCc2ccccc2)cs1
IC50 [4]: 12.9 µM (active)

Cn1c(=O)c2c(nc(N/N=C/c3ccncc3)n2Cc2ccccc2)n(C)c1=O
AC50 [8]: 628 nM (active)

COc1ccc(C(=O)N2CCN(c3ncnc4c(-c5ccccc5)nsc34)CC2)cc1
IC50 [1]: 4.3 µM (not active)

CCOc1ccccc1C(O)C1=CC(=O)c2ccccc2C1=O (configuration not stated)
IC50 [9]: 4.16 µM (active)

COc1ccc(-c2sc3cc4c(cc3c2C#CC2(N)CCCCC2)OCO4)cc1
AC50 [10]: 1.48 µM (active) | IC50 [6]: > 20 µM (inactive)

COc1cc(O)c(C(CCN2CCCCC2)c2ccc(N(C)C)cc2)c(OC)c1 (configuration not stated)
AC50 [8]: 1830 nM (active)

COc1ccc(/C=C2\N=C(c3ccccc3)N(c3ccc(C(=O)O)cc3)C2=O)cc1OC
IC50 [4]: 12.6 µM (active)

CC(C)C(=O)N1CCN(c2ccccc2N)CC1
IC50 [1]: 0.734 µM (not active)

O=C(COC(=O)c1ccccc1Nc1cccc(C(F)(F)F)c1)NCc1ccco1
IC50 [9]: 6.38 µM (active) | AC50 [11]: 10 µM (inconclusive)

O=[N+]([O-])c1ccc2[nH]c3c(c2c1)CCCC3
AC50 [8]: 15600 nM (active)

O=c1c2ccccc2nc(SCc2cn3ccsc3n2)n1-c1ccccc1F
IC50 [1]: < 0.4 µM (not active)

Cc1ccnc2c1ccc1cccnc12
IC50 [12]: > 80 µM (inactive) | IC50 [7]: 0.736 µM (active)

Cc1ccn2cc(-c3cccc(NC(=O)CCC(=O)O)c3)nc2c1
AC50 [8]: 618 nM (active)

O=C(Cn1cncn1)N/N=C/c1cc([N+](=O)[O-])ccc1O
IC50 [7]: 3.9 µM (active)

Cc1cc(/C=N/NC(=O)C(=O)NCc2ccccn2)c(C)n1-c1cccc(Br)c1
IC50 [1]: < 0.4 µM (not active)

CC(=O)N(C)c1ccc(OCC(O)CN(c2ccccc2C)S(=O)(=O)c2ccc(C)cc2)cc1 (configuration not stated)
IC50 [4]: 11.8 µM (active)

CC(C)NC(=O)Nc1ccc2c(c1)C(=O)N(C)[C@H]1CC[C@H](CC(=O)Nc3ccccc3)O[C@H]1CO2
AC50 [13]: 1.23 µM (active) | AC50 [14]: 1.25 µM (active) | AC50 [15]: 1.26 µM (active) | AC50 [16]: 1.23 µM (active)

Cc1cccc(NC(S)=NCCSc2ccc(Cl)cc2)c1
EC50 [17]: > 120 µM (not active) | EC50 [18]: 62.6 µM (active) | EC50 [19]: 84.8 µM (active) | IC50 [1]: 3.87 µM (not active)

CC(=O)c1c(C)[nH]c(C(=O)OCC(=O)Nc2ccc(Cl)c(S(=O)(=O)N(C)C)c2)c1C
AC50 [20]: 2.76 µM (active) | AC50 [21]: 40.4 µM (active)

C[C@H]1CN([C@@H](C)CO)C(=O)c2cc(NC(=O)Nc3ccc4c(c3)OCO4)ccc2O[C@H]1CN(C)S(=O)(=O)c1ccc(F)cc1
AC50 [20]: 15.2 µM (active) | AC50 [21]: 39 µM (active)

O=C(c1ccc2c(c1)OCO2)N1CCN=C1SCc1cccnc1
AC50 [8]: 76 nM (active)

COc1ccc(N=Nc2cc(OC)c(N)cc2OC)cc1
IC50 [7]: 35.3 µM (active) | IC50 [22]: 35.2 µM (active)
